Source: PMC6572176, “Functional Glyco-Nanogels for Multivalent Interaction with Lectins” (Molecules, 2019)

Key:
[1] = biological target: T1, Erythrina cristagalli lectin (ECL) (Erythrina crista-galli, UniProt P83410); assay: ELISA-type competitive inhibition, fluorescein-labeled lectin on immobilized asialofetuin; type: binding; conditions: 10 mM HEPES, 150 mM NaCl, 0.1 mM CaCl2, pH 7.5, 1 h
T1 construct: native plant lectin, fluorescein-labeled (Vector Laboratories); dimeric
T1 sequence (P83410 1-239): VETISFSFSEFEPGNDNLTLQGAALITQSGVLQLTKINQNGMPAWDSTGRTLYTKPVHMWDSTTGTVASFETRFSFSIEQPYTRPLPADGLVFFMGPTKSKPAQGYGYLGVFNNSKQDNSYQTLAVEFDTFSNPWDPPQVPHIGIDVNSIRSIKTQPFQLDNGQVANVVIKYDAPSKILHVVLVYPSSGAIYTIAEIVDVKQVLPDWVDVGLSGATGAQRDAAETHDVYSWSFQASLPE

[2] = biological target: T2, Ulex europaeus agglutinin I (UEA I) (Ulex europaeus, UniProt P22972); assay: ELISA-type competitive inhibition, fluorescein-labeled lectin on immobilized porcine stomach mucin; type: binding; conditions: 10 mM HEPES, 150 mM NaCl, 0.1 mM CaCl2, pH 7.5, 1 h
T2 construct: native plant lectin, fluorescein-labeled (Vector Laboratories)
T2 sequence (P22972 1-243): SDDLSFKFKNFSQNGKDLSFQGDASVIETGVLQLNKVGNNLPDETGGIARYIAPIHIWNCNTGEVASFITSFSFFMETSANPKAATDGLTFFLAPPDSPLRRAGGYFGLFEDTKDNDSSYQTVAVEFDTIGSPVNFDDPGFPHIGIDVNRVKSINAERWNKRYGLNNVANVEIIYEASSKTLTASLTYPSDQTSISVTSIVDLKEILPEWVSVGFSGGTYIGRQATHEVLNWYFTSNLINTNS

Compound	IC50 [1]	IC50 [2]
OC[C@H]1O[C@@H](O[C@H]2[C@H](O)[C@@H](O)C(O)O[C@@H]2CO)[C@H](O)[C@@H](O)[C@H]1O (some centres unmarked) [lactose]	free lactose is a potent inhibitor for ECL with IC50 in the same range	
C[C@@H]1OC(O)[C@@H](O)[C@H](O)[C@@H]1O (some centres unmarked) [fucose]		The IC50 value of fucose for UEA I binding is three-times
